Source: patent US10501470B2, “Use of asarinin in preparation of medicines for treating various coughs” (priority 2017, dated 2019)

System: cough of guinea pigs induced by citric acid
Assay: citric acid induced guinea pig cough model
Assay type: in vivo, Hartley guinea pigs
Conditions: for Cough Time (Number of Times) / Cough Incubation Period: once daily for 3 days, x±s, n=8; for Cough Time (Number of Times): cough times within 6 min after citric acid atomization; for Cough Incubation Period: within 6 min after citric acid atomization; for Antitussive Ratio: (N(blank control)-N(administration group))/N(blank control)x100%
Experimental: Experimental animals: 250-350 g of common level Hartley guinea pigs, including half males and half females are provided by Guangdong Medical Experimental Animal Center, wherein the number of the animal certificate is SCXK (Yue) 2008-0002.
Reagents and instruments: citric acid monohydrate (Guangzhou Chemical Reagent Factory, batch number: 20121001-2), wherein 0.8 M of citric acid solution is prepared by adding normal saline into citric acid monohydrate when in use; an animal noninvasive Buxco lung function detecting system (Buxco Company of America); an Aeroneb Pro atomizer (Aerogen (Ireland) Co., Ltd.); and a gavage needle (Guangdong Medical Experimental Animal Center).
A citric acid induced guinea pig cough model is adopted for efficacy evaluation. 112 Hartley guinea pigs are put in a 6 L plethysmograph of the animal noninvasive Buxco lung function detecting system one by one; the air velocity of a drift indicator is 2.5 L/min; 0.8 M of atomized aerosol of citric acid ultrapure aqueous solution is led for 1 min by the Aeroneb Pro atomizer; the average diameter of the atomized granules is […]; observation is carried out for 5 min; the sound of cough is recorded and amplified by an indoor microphone; sound waves are analyzed by Biosystem XA software; and computer software is used for processing sound data and recording cough situations. A trained observer observes whether a cough response exists or not, records the cough times within 6 min since atomization and selects the guinea pigs with more than 10 cough times as qualified animals for tests.
56 Hartley guinea pigs qualified by screening, including half males and half females, are randomly divided into 7 groups; 1 mL/100 g of normal saline is provided to a blank control group; a corresponding solvent (Tween-80 aqueous solution with 5% volume concentration) with equal volume is provided to a solvent group; 30 mg/kg of codeine phosphate with equal volume is provided to a positive drug group, asarinin (30 mg/kg, 60 mg/kg and 120 mg/kg of samples in embodiment 1) and total volatile oil of asarum (200 mg/kg of samples in embodiment 1) with equal volume are provided to each of administration groups; administration is carried out one time every day for successive 3 days. A citric acid atomization simulation test is carried out in the animal noninvasive Buxco lung function detecting system within 2 h after last administration (atomization conditions are described above); the cough times (N) and the cough incubation periods within 6 min are recorded; and the antitussive ratios of all the administration groups are calculated by a formula: antitussive ratio=(N(blank control)−N(administration group))/N(blank control)×100%.
The data are expressed by x±s, and a one-way analysis of variance is carried out on parameters of all the groups by IBM SPSS Statistics 19.0 software.

SMILES	Cough Time (Number of Times) (30 mg/kg)	Cough Incubation Period (30 mg/kg) [S]	Antitussive Ratio (30 mg/kg) [%]	Cough Time (Number of Times) (60 mg/kg)	Cough Incubation Period (60 mg/kg) [S]	Antitussive Ratio (60 mg/kg) [%]	Cough Time (Number of Times) (120 mg/kg)	Cough Incubation Period (120 mg/kg) [S]	Antitussive Ratio (120 mg/kg) [%]
c1cc2c(cc1C1OCC3C1CO[C@H]3c1ccc3c(c1)OCO3)OCO2 (stereo in doubt) [Asarinin, 5,5′-[(1R,3aR,4S,6aR)-tetrahydro-1H,3H-furo[3,4-c]furan-1,4-diyl]bis-1,3-Benzodioxole]	16.3 ± 2.2 Number of Times	98.5 ± 9.5	39.2	13.2 ± 2.1 Number of Times	94.2 ± 13.6	50.7	12.6 ± 1.9 Number of Times	127.3 ± 24.8	53.0
COc1ccc2c3c1O[C@H]1[C@@H](O)C=C[C@H]4[C@@H](C2)N(C)CC[C@@]341 [Codeine Phosphate, reference compound]	12.0 ± 2.3 Number of Times	130.0 ± 32.4	55.2						
